This is an account of results in patent publication US11247965B2 (VenatoRx Pharmaceuticals, Inc., priority 2017, dated 2022).

Series [1] can be described thus: In vitro cytotoxicity, MTT cell viability assay in HepG2 cells. Particulars: human, Cytotoxicity CC50. It counts as cell-based. Put shortly:
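HepG2 cells incubated 7 days at 37 °C, 5% CO2 with compounds from 30 μM to 1.0 nM (8 half-log dilutions). Viability read as MTT formazan absorbance at 492 nm, normalised to vehicle controls; CC50 from 4-parameter non-linear regression.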

The subject of series [2] is HBV replication in HepAD38 cells. As to the kind of experiment: Anti-HBV activity in HepAD38 cells, extracellular HBV DNA by QPCR. Format: cell-based, HBV (genotype D, serotype ayw). Conditions: Hepatitis B virus, HePAD38, 168 h, read-out: Anti-HBV EC50, HepAD38 cells, extracellular HBV DNA by QPCR, 7 days of incubation. In a few lines: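 HepAD38 cells (HepG2 with tet-repressible HBV genotype D genome) seeded overnight, tetracycline removed, then treated 7 days with compounds (half-log dilutions, 30 μM–10 nM; 1:200 from DMSO). Supernatant HBV DNA quantified by QPCR against standard curve; % inhibition vs vehicle, EC50 by 4-parameter fit.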

For `Cc1cc(NC(=O)c2ccc(F)c(C(F)(F)C(=O)N3[C@@H]4CCC[C@H]3C[C@@H](O)C4)c2)ccc1F` [Example 216, 3-(1,1-difluoro-2-((1R,3r,5S)-3-hydroxy-9-azabicyclo[3.3.1]nonan-9-yl)-2-oxoethyl)-4-fluoro-N-(4-fluoro-3-methylphenyl)benzamide], the CC50 at 7 days in series [1] was 5 to 30 µM. Besides, in series [2], the EC50 is less than 5 µM.

`Cc1ccc(C(=O)Nc2ccc(F)c(Cl)c2)cc1C(F)(F)C(=O)N1[C@@H]2CC[C@H]1C[C@H](O)C2` [Example 206, N-(3-chloro-4-fluorophenyl)-3-(1,1-difluoro-2-((1R,3s,5S)-3-hydroxy-8-azabicyclo[3.2.1]octan-8-yl)-2-oxoethyl)-4-methylbenzamide]: the 50% cytotoxic concentration (CC50) at 7 days in series [1] was 5 to 30 µM. For the same compound, the EC50 in series [2] is less than 5 µM.

The compound `Cc1ccc(C(=O)Nc2ccc(F)c(F)c2)cc1C(F)(F)C(=O)N1CCC(O)CC1` [Example 10, 3-(1,1-difluoro-2-(4-hydroxypiperidin-1-yl)-2-oxoethyl)-N-(3,4-difluorophenyl)-4-methylbenzamide] gave a CC50 at 7 days in series [1] of 5 to 30 µM. Moreover, the EC50 in series [2] lay within 5 to 30 µM.

Compound `O=C(Nc1ccc(Cl)cc1)c1ccc(Cl)c(C(F)(F)C(=O)N2CCC(O)CC2)c1` [Example 39, 4-chloro-N-(4-chlorophenyl)-3-(1,1-difluoro-2-(4-hydroxypiperidin-1-yl)-2-oxoethyl)benzamide] returned a CC50 at 7 days in series [1] of 5 to 30 µM. The EC50 in series [2] was 5 to 30 µM.

`O=C(Nc1ccc(F)c(F)c1)c1ccc(F)c(C(F)(F)C(=O)N2[C@@H]3CC[C@H]2C[C@H](O)C3)c1` [Example 199, 3-(1,1-difluoro-2-((1R,3s,5S)-3-hydroxy-8-azabicyclo[3.2.1]octan-8-yl)-2-oxoethyl)-N-(3,4-difluorophenyl)-4-fluorobenzamide] gave a CC50 at 7 days in series [1] of 5 to 30 µM. Moreover, the concentration giving a half-maximal response (EC50) in series [2] was less than 5 µM.

In turn, `Cc1cc(NC(=O)c2ccc(F)c(C(F)(F)C(=O)N3[C@@H]4CC[C@H]3C[C@H](O)C4)c2)ccc1F` [Example 163, 3-(1,1-difluoro-2-((1R,3s,5S)-3-hydroxy-8-azabicyclo[3.2.1]octan-8-yl)-2-oxoethyl)-4-fluoro-N-(4-fluoro-3-methylphenyl)benzamide] registered a cytotoxic concentration (CC50) at 7 days in series [1] of 5 to 30 µM. Further, the EC50 in series [2] is less than 5 µM.

`Cc1cc(NC(=O)c2ccc(F)c(C(F)(F)C(=O)N3CCn4c(nnc4C(F)(F)F)C3)c2)ccc1F` [Example 341, 3-(1,1-difluoro-2-oxo-2-(3-(trifluoromethyl)-5,6-dihydro-[1,2,4]triazolo[4,3-a]pyrazin-7(8H)-yl)ethyl)-4-fluoro-N-(4-fluoro-3-methylphenyl)benzamide]: the CC50 at 7 days in series [1] fell in the range of 5 to 30 µM. In addition, the EC50 in series [2] was in the range of 5 to 30 µM.

Take `Cc1cc(NC(=O)c2ccc(F)c(C(F)(F)C(=O)N[C@H]3CCCC[C@@H]3O)c2)ccc1F` [Example 83, 3-(1,1-difluoro-2-(((1S,2S)-2-hydroxycyclohexyl)amino)-2-oxoethyl)-4-fluoro-N-(4-fluoro-3-methylphenyl)benzamide]: the 50% cytotoxic concentration (CC50) at 7 days in series [1] is more than 30 µM. For the same compound, the EC50 in series [2] lay in the range of 5 to 30 µM.

The compound `Cc1ccc(C(=O)Nc2ccc(F)c(F)c2)cc1C(F)(F)C(=O)NC(C)C` [Example 9, 3-(1,1-difluoro-2-(isopropylamino)-2-oxoethyl)-N-(3,4-difluorophenyl)-4-methylbenzamide] had a half-maximal cytotoxic concentration (CC50) at 7 days in series [1] of more than 30 µM. In addition, the EC50 in series [2] was more than 30 µM.

In turn, `Cc1cc(NC(=O)c2ccc(F)c(C(F)(F)C(=O)N3[C@@H]4CC[C@H]3C[C@@H](NC(=O)OC(C)(C)C)C4)c2)ccc1F` [Example 225, tert-butyl ((1R,3r,5S)-8-(2,2-difluoro-2-(2-fluoro-5-((4-fluoro-3-methylphenyl)carbamoyl)phenyl)acetyl)-8-azabicyclo[3.2.1]octan-3-yl)carbamate] displayed a CC50 at 7 days in series [1] of 5 to 30 µM. Moreover, the concentration for a half-maximal effect (EC50) in series [2] is less than 5 µM.

In turn, `Cc1cc(NC(=O)c2ccc(F)c(C(F)(F)C(=O)N3CCC(O)CC3)c2)cc(F)c1F` [Example 159, 3-(1,1-difluoro-2-(4-hydroxypiperidin-1-yl)-2-oxoethyl)-N-(3,4-difluoro-5-methylphenyl)-4-fluorobenzamide] yielded a half-maximal cytotoxic concentration (CC50) at 7 days in series [1] of 5 to 30 µM. Besides, the EC50 in series [2] was less than 5 µM.

Compound `Cc1cc(NC(=O)c2ccc(F)c(C(F)(F)C(=O)N3[C@@H]4CCC[C@H]3[C@H](O)C4)c2)ccc1F` [Example 215, 3-(1,1-difluoro-2-((1R,5S,6R)-6-hydroxy-8-azabicyclo[3.2.1]octan-8-yl)-2-oxoethyl)-4-fluoro-N-(4-fluoro-3-methylphenyl)benzamide] yielded a CC50 at 7 days in series [1] of 5 to 30 µM. Moreover, the EC50 in series [2] is less than 5 µM.

In series [1], `CNC(=O)NCC(=O)N1CC2CN(C(=O)C(F)(F)c3cc(C(=O)Nc4ccc(F)c(C)c4)ccc3F)CC2C1` (stereo not shown) [Example 284, 3-(1,1-difluoro-2-(5-((methylcarbamoyl)glycyl)hexahydropyrrolo[3,4-c]pyrrol-2(1H)-yl)-2-oxoethyl)-4-fluoro-N-(4-fluoro-3-methylphenyl)benzamide] returned a CC50 at 7 days of more than 30 µM. Also, in series [2], the EC50 was 5 to 30 µM.

`CC(C)n1cc(NC(=O)c2ccc(F)c(C(F)(F)C(=O)N3CCC(O)CC3)c2)cn1` [Example 80, 3-(1,1-difluoro-2-(4-hydroxypiperidin-1-yl)-2-oxoethyl)-4-fluoro-N-(1-isopropyl-1H-pyrazol-4-yl)benzamide]: the 50% cytotoxic concentration (CC50) at 7 days in series [1] is more than 30 µM. Besides, in series [2], the concentration giving a half-maximal response (EC50) was more than 30 µM.

Compound `CN(C(=O)c1ccc(Cl)c(C(F)(F)C(=O)N2CCC(O)CC2)c1)c1ccc(Cl)cc1` [Example 40, 4-chloro-N-(4-chlorophenyl)-3-(1,1-difluoro-2-(4-hydroxypiperidin-1-yl)-2-oxoethyl)-N-methylbenzamide] gave a CC50 at 7 days in series [1] of more than 30 µM. Moreover, the EC50 in series [2] was more than 30 µM.

As for `Cc1cc(NC(=O)c2ccn(C)c2C(F)(F)C(=O)NC(C)C(F)(F)F)ccc1F` (stereo not shown) [Example 112, 2-(1,1-difluoro-2-oxo-2-((1,1,1-trifluoropropan-2-yl)amino)ethyl)-N-(4-fluoro-3-methylphenyl)-1-methyl-1H-pyrrole-3-carboxamide], the half-maximal cytotoxic concentration (CC50) at 7 days in series [1] is more than 30 µM. Besides, the 50% effective concentration (EC50) in series [2] was more than 30 µM.

For `CCn1cc(C(=O)Nc2ccc(F)c(C)c2)cc1C(F)(F)C(=O)NC(C)(C)C` [Example 134, 5-(2-(tert-butylamino)-1,1-difluoro-2-oxoethyl)-1-ethyl-N-(4-fluoro-3-methylphenyl)-1H-pyrrole-3-carboxamide], the CC50 at 7 days in series [1] is more than 30 µM. Moreover, the EC50 in series [2] is less than 5 µM.

Take `Cc1cc(NC(=O)c2csc(C(F)(F)C(=O)N3CCCC3)c2)ccc1F` [Example 59, 5-(1,1-difluoro-2-oxo-2-(pyrrolidin-1-yl)ethyl)-N-(4-fluoro-3-methylphenyl)thiophene-3-carboxamide]: the half-maximal cytotoxic concentration (CC50) at 7 days in series [1] is more than 30 µM. For the same compound, the EC50 in series [2] is less than 5 µM.

Turning to `Cc1cc(NC(=O)c2cccc(C(F)(F)C(=O)N3[C@@H]4CC[C@H]3C[C@H](O)C4)c2F)ccc1F` [Example 207, 3-(1,1-difluoro-2-((1R,3s,5S)-3-hydroxy-8-azabicyclo[3.2.1]octan-8-yl)-2-oxoethyl)-2-fluoro-N-(4-fluoro-3-methylphenyl)benzamide], the CC50 at 7 days in series [1] was 5 to 30 µM. Further, the EC50 in series [2] was less than 5 µM.

As for `O=C(Nc1ccc(F)c(F)c1)c1ccc(F)c(C(F)(F)C(=O)NCc2ccc(O)cc2)c1` [Example 65, 3-(1,1-difluoro-2-((4-hydroxybenzyl)amino)-2-oxoethyl)-N-(3,4-difluorophenyl)-4-fluorobenzamide], in series [1], the CC50 at 7 days was in the range of 5 to 30 µM. In addition, in series [2], the EC50 fell in the range of 5 to 30 µM.

`Cc1cc(NC(=O)c2ccc(F)c(C(F)(F)C(=O)N[C@H]3CCOB3O)c2)ccc1F` [Example 150, (R)-3-(1,1-difluoro-2-((2-hydroxy-1,2-oxaborolan-3-yl)amino)-2-oxoethyl)-4-fluoro-N-(4-fluoro-3-methylphenyl)benzamide] gave a CC50 at 7 days in series [1] of more than 30 µM. Moreover, in series [2], the EC50 is less than 5 µM.

`CCC(C)NC(=O)C(F)(F)c1cc(C(=O)Nc2ccc(F)c(F)c2)ccc1F` (stereo not shown) [Example 1, 3-(2-(sec-butylamino)-1,1-difluoro-2-oxoethyl)-N-(3,4-difluorophenyl)-4-fluorobenzamide] gave a half-maximal cytotoxic concentration (CC50) at 7 days in series [1] of 5 to 30 µM. Further, in series [2], the EC50 was less than 5 µM.

`O=C(Nc1ccc(F)c(Cl)c1)c1ccc(F)c(C(F)(F)C(=O)N2CCC(O)CC2)c1` [Example 85, N-(3-chloro-4-fluorophenyl)-3-(1,1-difluoro-2-(4-hydroxypiperidin-1-yl)-2-oxoethyl)-4-fluorobenzamide]: the CC50 at 7 days in series [1] was in the range of 5 to 30 µM. In series [2], the 50% effective concentration (EC50) is less than 5 µM.

`Cc1cc(NC(=O)c2cc(C(F)(F)C(=O)N3CCC(O)CC3)ccc2Cl)ccc1F` [Example 95, 2-chloro-5-(1,1-difluoro-2-(4-hydroxypiperidin-1-yl)-2-oxoethyl)-N-(4-fluoro-3-methylphenyl)benzamide] showed a CC50 at 7 days in series [1] of more than 30 µM. The EC50 in series [2] was more than 30 µM.

Regarding `O=C(Nc1ccc(F)c(F)c1)c1ccc(F)c(C(F)(F)C(=O)N[C@H]2CCOC2)c1` [Example 3, (S)-3-(1,1-difluoro-2-oxo-2-((tetrahydrofuran-3-yl)amino)ethyl)-N-(3,4-difluorophenyl)-4-fluorobenzamide], the CC50 at 7 days in series [1] is 5 to 30 µM. For the same compound, the EC50 in series [2] lay within 5 to 30 µM.

Turning to `CCC(C)NC(=O)C(F)(F)c1cc(C(=O)Nc2ccc(F)c(Cl)c2)cn1C` (stereo not shown) [Example 136, 5-(2-(sec-butylamino)-1,1-difluoro-2-oxoethyl)-N-(3-chloro-4-fluorophenyl)-1-methyl-1H-pyrrole-3-carboxamide], the CC50 at 7 days in series [1] is more than 30 µM. Further, the EC50 in series [2] was 5 to 30 µM.

One may read the CC50 as the concentration at which the toxic effect on the cells reaches its halfway point. Lower therefore signals greater toxicity to the cells. In general, EC50 refers to the concentration giving half of the maximal effect.
